Values after ≈ are worked out from the molar mass of the structure shown.
Columns and labels:
[1] = tested on: gastric ulcer induced by NSAIDs; conditions: clinical; cited from earlier work
gastric mucosa = conditions: U.S. Pat. No. 5,399,584; cited from earlier work
cyclooxygenase [2] = assay: Cyclooxygenase activity in HUVEC (PGE2 synthesis); format: cell-based
Description: (§1) Measurment of Cyclooxygenase Actvity
(§2) After addition of the compound to cultured HUVEC, the HUVEC was incubated at 37° C., for 30 minutes, then arachidonic acid (final concentration: 30 .rho.M) was added, and the HUVEC was additionally incubated at 37° C. for 15 minutes. The culture medium was taken, and the activity of cyclooxygenase for 6-Keto-PGF1 α or PGE2 was measured by radioimmunoassay (Mitchell, J. A., et al., Pro. Natl. Acad. Sci. USA 1994, 90: 11693-11697).
**SC200 (μg/mL) : Concentration at increasing generation of […]

[3] = tested on: gastric mucosal damage induced by ethanolic HCl; assay: Gastritis model induced with ethanolic-HCl; format: in vivo, SD male rat; conditions: po, 1 h, rat; for inhibition in vivo at 0.3 mg/kg: 0.3 mg/kg p.o.; for inhibition in vivo at 1 mg/kg: 1 mg/kg p.o.; for inhibition in vivo at 3 mg/kg: 3 mg/kg p.o.
Description: Effect on the Gastritis Model Induced with Ethanolic-HCl.
SD male rat(250-350 g) was fasted for 24 hours. The compound was orally administered in suspension of 5% HPMC, and after 1 hour 1.5 mL of 150 mM HCl-80% ethanol was orally administered. After 1 hour the rat was sacrifieced and the stomach was extracted and the ulcer index was measured. The ulcer index was shown by the area of hemorrhage lesion(Mizui, T, et al., Jpn. J. Pharmacol. 1983, 33: 939).

cyclooxygenase [4] = assay: Cyclooxygenase activity in HUVEC (PGF1 α synthesis); format: cell-based
Description: as §1, §2
**SC200 (ug/mL) : Concentration at increasing generation of […]

neutrophils = assay: Luminol-dependent chemiluminescence of neutrophils induced by FMLP; format: cell-based; conditions: Neutrophil, 1 μM FMLP, 0.07 mM luminol; read-out: IC50, inhibition of chemiluminescence generated by neutrophil activation
Description: Measurement of luminol-dependent chemiluminescencei iof neutrophil induced by FMLP.
20 mL of 12% sodium caseinate-0.9% saline was administered intraperitoneally (Newsby, A. C., Biochem. J., 1980, 186: 907,. After 20 hours, the intraperitoneal exudate was extracted under ether anesthesia. The exudate was centrifuged, and erythrocytes were removed by hypotonic lysis, and then neutrophil was washed. Neutrophil was ascertained by Wright's dyeing method, and viability was measured by Trypan blue exclusion test. Chemiluminescence was measured by Topcount (Packard Co.). The suspension of 1.5×10^6 of granulocytes, 1 μM of FMLP, 0.07 mM of luminol and the compound in HBSS was used (Dahlgren, C., et al., Infect. Immun., 1985 47: 326-328).
**IC50 (μg/mL): Concentration of the compound at inhibiting
chemiluminescence generated by neutrophil activation to 50%

gastric mucus secretion = assay: Measurement of gastric mucus; format: in vivo, SD male rat; conditions: oral, rat
Description: Measurement of Gastric Mucus
The compound was orally administered into SD male rat (200~250 g). After 1 hour the stomach was extracted. The extracted stomach was immediately washed with 10 mL of cold 0.25M sucrose solution. The gastric mucosa was dyed with 0.1% alcian blue solution for 2 hours. After dyeing, the gastric mucosa was washed with 0.25M sucrose solution twice for 15 minutes and for 45 minutes. The dyed gastric mucosa was treated with 10 mL of 30% dioctyl sodium sulfosuccinate solution for 2 hours to extract dyed mucus completely and optical density of aqueous phase was measured spectrophotometrically at 655 nm. The amount of mucus in the gastric mucosa was shown as the amount of alcian blue after calibration (Kitagawa, H., et al., Drug Res. 1986, 36: 1240-1244).

5-lipoxygenase = molecular target: T1, 5-lipoxygenase (Rattus norvegicus, UniProt P12527); assay: 5-lipoxygenase activity (LTB4 in A23187-stimulated peritoneal neutrophils); format: cell-based
T1 construct: endogenous in cells; host or cells: casein-elicited rat peritoneal neutrophils
T1 sequence (P12527 1-673): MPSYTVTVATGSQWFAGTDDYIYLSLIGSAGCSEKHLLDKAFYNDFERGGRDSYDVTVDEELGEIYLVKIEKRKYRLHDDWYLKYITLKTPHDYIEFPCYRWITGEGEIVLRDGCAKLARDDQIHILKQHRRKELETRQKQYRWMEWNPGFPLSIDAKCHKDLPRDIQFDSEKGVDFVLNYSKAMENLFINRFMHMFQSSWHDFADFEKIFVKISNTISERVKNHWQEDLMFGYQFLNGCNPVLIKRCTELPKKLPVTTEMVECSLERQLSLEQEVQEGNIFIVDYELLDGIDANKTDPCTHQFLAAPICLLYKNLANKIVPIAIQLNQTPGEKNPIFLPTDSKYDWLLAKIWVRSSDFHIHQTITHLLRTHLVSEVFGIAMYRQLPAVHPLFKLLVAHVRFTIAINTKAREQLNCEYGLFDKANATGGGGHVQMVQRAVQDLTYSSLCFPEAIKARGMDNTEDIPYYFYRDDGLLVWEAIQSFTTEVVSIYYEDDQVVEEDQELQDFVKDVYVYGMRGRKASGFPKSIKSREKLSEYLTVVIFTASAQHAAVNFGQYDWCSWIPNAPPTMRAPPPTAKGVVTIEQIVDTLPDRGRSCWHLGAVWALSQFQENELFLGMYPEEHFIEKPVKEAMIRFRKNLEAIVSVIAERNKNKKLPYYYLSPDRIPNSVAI
Description: Measurement of 5-lipooxygenase Activity
Modified Safayhi et al.'s method (Safayhi, H., et al., Biochem. Pharmacol. 1985, 34: 2691) was used to this experiment. Peritoneal neutrophil was separated from the rat which was treated with casein solution. The compound was added to 10^7 cells (5×10^6 cells/mL, 2 mL) of neutrophil after 2 minutes Ca^2+ -ionophore, A23187 (1 μg/mL) was added and the mixture was incubared at 37° C. for 10 minutes. The reaction mixture was centrifuged and the supermatant was taken up. The amount of LTB4 in the supermatant was measured by radioimmunoassay.

experimental ulceration = conditions: various kinds of ulcerogens; cited from earlier work
leukocytes = conditions: cited from earlier work
[5] = tested on: epidermal cells of mucous membrane in gastrointestinal tracts; conditions: cited from earlier work
[6] = tested on: gastric mucosal damage induced by NSAIDs; conditions: NSAID-induced; cited from earlier work
[7] = tested on: gastritis and gastric ulcer; conditions: in vivo; cited from earlier work

In the case of CCCCC(C)(O)C/C=C/[C@H]1[C@H](O)CC(=O)[C@@H]1CCCCCCC(=O)OC (mixture of isomers) [misoprostol], the “prevention of NSAID-induced gastric ulcer” value [1] is given as “prevented the gastric ulcer induced by NSAIDs”.
In the case of COc1cccc2oc(-c3ccc(F)cc3)cc(=O)c12 [4'-fluoro-5-methoxy flavone], the “protective effect on damage of gastric mucosa” value (gastric mucosa) is listed as “protective effect on the damage of gastric mucosa”.
In the case of COc1ccc(C2CC(=O)c3c(cc(O)c(OC)c3O)O2)cc1OC (centres unmarked) [5,7-dihydroxy-3',4',6-trimethoxy flavanone], the “SC200, concentration increasing generation of PGE2 to 200%” value (cyclooxygenase [2]) is reported as 3.9 µg/mL, the inhibition in vivo at 0.3 mg/kg [3] is reported as 5% and the inhibition in vivo at 1 mg/kg [3] is reported as 49%. For the same compound, the inhibition in vivo at 3 mg/kg [3] was 56% and the “SC200, concentration increasing generation of PGF1α to 200%” value (cyclooxygenase [4]) was 34.6 µg/mL.
With COc1ccc(-c2cc(=O)c3c(O)c(OC)c(O)cc3o2)cc1OC [5,7-dihydroxy-3',4',6-trimethoxy flavone] the “SC200, concentration increasing generation of PGE2 to 200%” value (cyclooxygenase [2]) was 2.4 µg/mL, the inhibition in vivo at 0.3 mg/kg [3] was 58% and the inhibition in vivo at 1 mg/kg [3] was 64%. The inhibition in vivo at 3 mg/kg [3] was 80%, the “SC200, concentration increasing generation of PGF1α to 200%” value (cyclooxygenase [4]) was 3.4 µg/mL and the IC50 (neutrophils) was 0.463 µg/mL (≈ 1.34 µM). The “gastric mucus secretion, % Control” value (gastric mucus secretion; 0.3 mg/kg) was 132.2 % Control, the “gastric mucus secretion, % Control” value (gastric mucus secretion; 3 mg/kg) was 130.7 % Control and the “gastric mucus secretion, % Control” value (gastric mucus secretion; 30 mg/kg) was 116.8 % Control. The IC50 (5-lipoxygenase) was 13.1 µM.
For COc1ccc(-c2cc(=O)c3c(OC)c(OC)c(OCC(=O)O)cc3o2)cc1OC [7-carboxymethyloxy-3',4',5,6-tetramethoxy flavone], the “SC200, concentration increasing generation of PGE2 to 200%” value (cyclooxygenase [2]) was 15.76 µg/mL, the inhibition in vivo at 0.3 mg/kg [3] was 54% and the inhibition in vivo at 1 mg/kg [3] was 77%. For the same compound, the inhibition in vivo at 3 mg/kg [3] was 84%, the “SC200, concentration increasing generation of PGF1α to 200%” value (cyclooxygenase [4]) was 11.09 µg/mL and the IC50 (neutrophils) was 1.57 µg/mL (≈ 3.77 µM). For the same compound, the “gastric mucus secretion, % Control” value (gastric mucus secretion; 0.3 mg/kg) was 120 % Control, the “gastric mucus secretion, % Control” value (gastric mucus secretion; 3 mg/kg) was 130 % Control and the “gastric mucus secretion, % Control” value (gastric mucus secretion; 30 mg/kg) was 139 % Control. The IC50 (5-lipoxygenase) was 140 µM.
For CCCCC[C@H](O)/C=C/[C@H]1[C@H](O)CC(=O)[C@@H]1C/C=C\CCCC(=O)O [PGE2], the “prevention of experimental ulceration” value (experimental ulceration) is listed as “effectively prevent the experimental ulceration”.
For COc1ccc2c(c1)c(CC(=O)O)c(C)n2C(=O)c1ccc(Cl)cc1 [indomethacin], the “leukocyte adherence to vascular endothelium” value (leukocytes) is listed as “induce adherence of leukocytes to the vascular endothelium”.
In the case of COc1ccc2[nH]c([S+]([O-])Cc3ncc(C)c(OC)c3C)nc2c1 (centres unmarked) [omeprazole], the “effect of long-term administration to rats” value [5] is listed as “caused dysplasia in epidermal cells of mucous membrane in gastrointestinal tracts”.
In the case of catalase, the “reduction of gastric mucosal damage” value [6] is listed as “significantly reduce the extent of gastric mucosal damage induced by NSAIDs”.
For sucralfate, the frequency of recurrence [7] is listed as “low frequency of recurrence”.

From US6025387A, “Gastroprotective flavone/flavanone compounds with therapeutic effect on inflammatory bowel disease” (Dong a Pharmaceutical Co., Ltd., priority 1996, dated 2000)
